Measurements as given in PubChem BioAssay (NCI).
Values joined by “and” are separate entries in the source; they are usually repeats but may differ in a detail not shown here. Equal entries are not always repeated.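 Cells were grown in 96-well plates and exposed to each compound for 48 hours at five concentrations; endpoints were interpolated linearly between bracketing concentrations, or set to the highest concentration if not reached. GI50 = concentration required for 50% inhibition of growth. Definition used: TGI = concentration required for complete inhibition of growth.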

What was measured:
Assay in all cases: inhibition of tumour cell growth, NCI panel, 48 h
OVCAR-8 ovarian = tested on: OVCAR-8 ovarian
UACC-62 melanoma = tested on: UACC-62 melanoma
SNB-19 CNS = tested on: SNB-19 CNS
CAKI-1 renal = tested on: CAKI-1 renal
SK-OV-3 ovarian = tested on: SK-OV-3 ovarian
HCT-15 colon = tested on: HCT-15 colon
HOP-62 NSCLC = tested on: HOP-62 NSCLC
UO-31 renal = tested on: UO-31 renal
A498 renal = tested on: A498 renal
MCF7 breast = tested on: MCF7 breast

Row | SMILES | GI50 (OVCAR-8 ovarian) [µM] | TGI (OVCAR-8 ovarian) [µM] | GI50 (UACC-62 melanoma) [µM] | TGI (UACC-62 melanoma) | TGI (SNB-19 CNS) [µM] | GI50 (CAKI-1 renal) [µM] | TGI (CAKI-1 renal) | TGI (SK-OV-3 ovarian) [µM] | GI50 (HCT-15 colon) [µM] | TGI (HCT-15 colon) [µM] | GI50 (HOP-62 NSCLC) [µM] | TGI (HOP-62 NSCLC) [µM] | TGI (UO-31 renal) | TGI (A498 renal) | GI50 (MCF7 breast) [µM] | TGI (MCF7 breast) [µM] | GI50 (SNB-19 CNS) [µM] | GI50 (SK-OV-3 ovarian) [µM] | GI50 (UO-31 renal) [µM] | GI50 (A498 renal) [µM]
1 | O=S1(=O)CS(=O)(=O)OCCO1 | > 77.7 | 235 | 12 | > 78.7 µM and 20.9 µM | 324 | 33.2 | > 92.9 µM and 143 µM | 70.5 | > 85.6 | 128 | > 85.2 | 50.9 | 134 µM | 154 µM | 39.1 | 348 | – | – | – | –
2 | Cc1cc2nc3cc(C)c(N)cc3[n+](-c3ccccc3)c2cc1N | 2.83 | > 100 | 6.19 | 30.7 µM | > 100 | > 100 | > 100 µM | > 100 | > 100 | > 100 | 3.7 | > 100 | > 100 µM | > 100 µM | 2.48 | > 100 | 2.06 | 24.8 | > 100 | 54.8
3 | CN1CCN(Cc2ccc(NC(=O)c3cncc(C#Cc4cncc5nccnc45)c3)cc2C(F)(F)F)CC1 | 3.71 | 24.1 | 1.55 | 7.21 µM | 18.9 | 2.18 | 9.09 µM | 13 | 2.51 | 12.9 | 2.68 | 9.8 | > 50 µM | 3.22 µM | 2.35 | 10.1 | 9 | 2.75 | 2.16 | 0.772
4 | C[C@]12CC[C@H]3[C@@H](C[C@@H]4SC(Nc5ccccc5)=N[C@@]45CC(O)CC[C@]35C)[C@@H]1CCC2O (stereo not given in full) | 3.43 | 14.9 | 1.83 | 3.96 µM | 3.77 | 2.32 | 5.68 µM | 17.9 | 1.6 | 5.15 | 2.47 | 6.54 | 3.05 µM | 5.66 µM | 1.8 | 4.73 | 1.86 | 5.16 | 1.67 | 2.16
5 | COC(=O)C(CBr)CBr | – | 8.83 | – | 18.1 µM | 13.3 | – | 10 µM | 33.8 | – | 3.75 | – | 40.7 | 10.2 µM | 31.8 µM | – | 20.6 | – | – | – | –
6 | COCCN1CCN(Cc2ccc(-c3n[nH]c4c3C(=O)c3c(NC(=O)NN5CCOCC5)cccc3-4)cc2)CC1 | 0.0309 | – | 0.0145 | 0.0462 µM | > 10 | 0.0277 | > 10 µM | > 9.41 | 0.117 | 2 | 0.0324 | 2.94 | 9.36 µM | 0.141 µM | 0.00766 | > 5.52 | 0.0298 | 0.0457 | 0.0916 | 0.0292
7 | Cc1ccc(C2=Nc3c(N)ncnc3NC(c3ccc4c(c3)OCO4)C2)cc1 (stereo not given) | 13.5 | > 100 | 4.09 | > 100 µM | > 100 | 1.44 | 19.1 µM | 52.3 | 3.14 | 13.7 | > 100 | > 100 | 26.5 µM | 35.2 µM | 3.42 | > 100 | 38.2 | 15.8 | 10.8 | 6.33
8 | O=C(O)CCc1c2ccc(=O)c(O)c-2oc2c(O)c(O)ccc12 | – | > 100 | – | > 100 µM | > 100 | – | > 100 µM | > 100 | – | > 100 | – | > 100 | > 100 µM | > 100 µM | – | 29.3 | – | – | – | –
9 | Cc1[nH]nc2c1N=C(c1ccccc1F)c1cc(C(N)=O)ccc1N2 | 5.77 | > 25 | 4.11 | 9.17 µM | > 25 | 3.83 | > 19.7 µM | > 25 | 4.69 | > 25 | 3.79 | 24.4 | > 21.1 µM | 6.02 µM | 0.592 | > 20 | 6.43 | 6.43 | 4.31 | 1.08
10 | C[n+]1c(-c2ccc(/C=N/NC(=O)c3ccc(C(=O)N/N=C/c4ccc(-c5cn6ccccc6[n+]5C)cc4)cc3)cc2)cn2ccccc21 | 184 | 323 | 177 | 316 µM | 517 | > 1000 | > 1000 µM | 494 | > 1000 | > 1000 | 277 | 425 | > 73.3 µM and 955 µM | 70.8 µM and 309 µM | 343 | > 1000 | 248 | 281 | 227 | 172
11 | C/C(=N\N=C(\[Se])N(C)C)c1ccccn1 | – | 6.46 | – | 2.4 µM | 15.9 | – | 16.1 µM | 10.2 | – | 15.9 | – | 1.33 | 13.9 µM | 9.94 µM | – | 8.15 | – | – | – | –
12 | Cc1ccn2c(CCc3nnc4cc(C)ccn34)nnc2c1 | – | > 100 | – | > 100 µM | > 100 | – | > 100 µM | > 100 | – | > 100 | – | > 100 | > 100 µM | > 100 µM | – | > 100 | – | – | – | –
13 | O=C1C(=O)c2ccccc2C(O)=C1CCCc1ccc(C2CCCCCC2)cc1 | 1.62 | 41.7 | 0.718 | 21.2 µM | > 100 | 0.432 | 26 µM | 54.6 | 0.539 | > 85.9 | 1.27 | 27.3 | 8.94 µM | 13.1 µM | 0.513 | > 49 | 0.803 | 2.85 | 0.612 | 0.349
14 | NC(N)=Nc1nc2ccc([N+](=O)[O-])cc2[nH]1 | – | > 100 | – | > 100 µM | > 100 | – | > 100 µM | > 100 | – | > 100 | – | > 100 | > 100 µM | > 100 µM | – | > 100 | – | – | – | –
